Results as given in patent US20110009332A1, “Therapeutic Treatment Of Wounds” (SOUTHWEST RESEARCH INSTITUTE, priority 2009, published 2011).
Entries after “also recorded” stand apart in the source; their conditions may differ. Where a SMILES comes first, the peptide text is derived from it. The star is where a group is joined. Cbz = O=C(OCc1ccccc1)*; OtBu = CC(C)(C)O*

Columns and labels:
EFT400-Epidermis = experiment: Skin thickness upon addition of PS-1 (EPIDERMFT EFT-400 tissue samples, in vitro); format: cell-based; settings: for EFT400-Epidermis thickness, Trial 1: control 61; for EFT400-Epidermis thickness, Trial 3: control 66.22; for EFT400-Epidermis thickness, Trial 2: control 73.73
Procedure: Tissue samples were received and equilibrated for treatment. Media was retained for enzyme-linked immunosorbent assay (ELISA) using an EPIDERMFT kit, product number EFT-400. On the second day, PS-1 treatment was added to the samples, wherein the media was exchanged with compound in 4 ml. More specifically, three samples were maintained as control samples and included DMSO at a concentration of 62 μm/10 ml, with no added PS-1 treatment, 0.1 μM (0.620/10 ml) was added to three samples, 1 μM (0.620/10 ml) was added to three samples, and 10 μM (0.620/10 ml) was added to three samples.
The samples were left to incubate on days 3-5 and on day 6, the media was exchanged again. On the seventh day, tissue samples were removed and conditioned media was saved for ELISA. The samples were then measured using […].
FIG. 2 illustrates changes in the epidermis thickness versus the amount of PS-1 added to the assays and the supporting data is presented in Table 1 below. […] FIGS. 3 through 5 illustrate the difference in thickness as between the control samples and the 10 μl/ml samples at 10× magnification and 40× magnification.

[1] = system: TGF-β1 protein expression in human dermal fibroblast cells; experiment: TGF-β1 protein expression in normal and PMA-challenged human dermal fibroblasts; format: cell-based; settings: PS-1 0 nM to 10000 nM
Procedure: Cyto-toxicity analysis was performed to illustrate the inhibition of TGF-131 in human dermal fibroblasts. Both normal human dermal fibroblast cells (i.e., undamaged or non-wounded skin cells) and challenged (damaged) human dermal fibroblast cells were treated with concentrations of PS-1 ranging from 0 nM to 10000 nM and the effect of the various PS-1 concentrations on the normal and challenged cells was measured. It is noted that the challenged human dermal fibroblast cells were treated in vitro with 10 nM of phorbol 12-myristate 13-acetate (PMA) to simulate wounding. […] FIG. 11 illustrates TGF-131 protein expression upon addition of PS-1 in cells challenged by the addition of the 10 nM of PMA.

[2] = system: incisional wounds of Sprague-Dawley rats; experiment: Incisional wound healing model: tensometry and wound thickness; format: in vivo
Source text: (§1) Using a standard incisional wound healing model, two 6 cm linear incisions were made through the panniculus carnosum on the dorsal aspect of 10 to 12 week old male Sprague-Dawley rats 1 centimeter on either side of midline running cephalid to caudal using a prefabricated template. Three surgical clips were used to close the incision and serve as guides for sectioning on harvest day.
(§2) Rats were randomly assigned to 1 of 3 treatment groups, indentified by the treatment administered to the wound located on the left. All wounds located on the right, regardless of treatment group, received vehicle (100% DMSO) as a control. […] Treatment was administered by applying 100 micro liters into (at time of closure) or onto the wound every 24 hours for the first 48 hours beginning at the time of wound closure, totaling 3 doses per wound.
(§3) On days 7, 14 and 28 post-wounding, the rats were euthanized and the entire dorsal skin excised. Four 8 mm sample strips were cut perpendicular to the wounds, to incorporate both the treated wound and the adjacent vehicle wound. The sample strips were then cut in half, equidistance from the two parallel wounds, yielding a total of four samples per wound, and yielding a compliment vehicle wound for each treated sample. One cephalic and one caudle sample were immediately prepared for histology, with the remaining two strips immediately prepared for tensometry.
Prior to sample loading for testing by tensometry, the underlying subcutaneous fascia was removed to the level of the panniculus carnosum using sharp dissection, following a natural dissection plane. For the day 28 wounds, the 8 mm samples were divided into 4 mm strips prior to loading secondary to slippage issues encountered during the pilot study. Samples were loaded into a Lloyd Instrument materials testing system (model LRX plus, Fareham, Hampshire, UK) with a 50 N load cell, with the wounds perpendicular to the grips and pulled at a rate of 200 mm/min. Wound thickness, just superficial to epithelium and just deep to panniculus carnosum, was measured at the time of testing with digital calipers (Absolute Digimatic Caliper, Mitutoyo, Kawasaki, Kanagawa, Japan). The wound width was measured at a preload of 0.5N by obtaining the correlating still frame image from a hands free mounted video camera (HDR-SR1 Handycam® camcorder, Sony, San Diego, Calif.). These two measurements were then used to calculate the cross sectional area of the wounds and the subsequent tensile strength (N/mm^2).
(§4) A paired student's t-test was used for statistical comparisons between adjacent wounds. A tukey's comparison was used for statistical comparison of wounds between different rats. A Kruskal-Wallis test was used for comparing graded histology. A Chi square was used to determine statistical meaning of epithelial necrosis.

[3] = system: incisional wounds of Sprague-Dawley rats; experiment: Incisional wound healing model: histology; format: in vivo; settings: for Overall Dermal Collagen Response: histology score; for wounds presenting with some degree of epithelial hyperplasia: control rats 60%
Source text: as §1, §2, §3
Histological samples were fixed in 10% formalin, routinely processed, embedded in paraffin, and sectioned at approximately 5 μm. Cross sections of skin were stained with hematoxylin and eosin (H&E) and Masson's Trichrome using routine methods. All slides were subjectively evaluated on an Olympus BX40 microscope (Olympus America, Center Valley, Pa.) by a board-certified veterinary pathologist blinded to the treatment groups. The following parameters were determined for each sample: (1) collagen density (0=no mature collagen, 1=loose, 2=intermediate, 3=dense); (2) collagen maturity (1=immature, 2=intermediate, 3=mature); (3) amount and type of inflammation present in the dermis (0=none, 1=minimal, 2=mild, 3=moderate, 4=severe); (4) epithelial hyperplasia (0=none, 1=minimal, 2=mild, 3=moderate, 4=severe); (5) amount of epidermal necrosis over wound (0=0%, 1=25%, 2=50%, 3=75%, 4=100). Images were captured using an Olympus BX41 microscope (Olympus America, Center Valley, Pa.) and an Olympus DP71 digital camera (Olympus America, Center Valley, Pa.). Captured images of Masson's Trichrome sections under a 4× objective were uploaded into ImageJ (NIH) in order to calculate the cross sectional area of immature collagen within day 28 wounds. For statistical purposes, samples were averaged to provide a single score in each parameter per wound.
as §4

With `CC[C@H](C)[C@H](NC(=O)OCc1ccccc1)C(=O)N[C@@H](CCC(=O)OC(C)(C)C)C(=O)N[C@@H](C)C(=O)N[C@H](C=O)CC(C)C` [PS-1, Z-Ile-Glu(OBu^t)-Ala-Leu-H] (Cbz-IE(OtBu)AL-aldehyde) the “EFT400-Epidermis thickness, Trial 1” value (EFT400-Epidermis; 0.1 μM PS-1) was 69.47 microns, the “EFT400-Epidermis thickness, Trial 3” value (EFT400-Epidermis; 0.1 μM PS-1) was 78.82 microns and the “EFT400-Epidermis thickness, Trial 2” value (EFT400-Epidermis; 0.1 μM PS-1) was 61.85 microns. The “EFT400-Epidermis thickness, Trial 1” value (EFT400-Epidermis; 1 μM PS-1) was 59.13 microns, the “EFT400-Epidermis thickness, Trial 3” value (EFT400-Epidermis; 1 μM PS-1) was 61.6 microns and the “EFT400-Epidermis thickness, Trial 2” value (EFT400-Epidermis; 1 μM PS-1) was 54.09 microns. For the same molecule, the “EFT400-Epidermis thickness, Trial 1” value (EFT400-Epidermis; 10 μM PS-1) was 106.31 microns, the “EFT400-Epidermis thickness, Trial 3” value (EFT400-Epidermis; 10 μM PS-1) was 100.16 microns and the “EFT400-Epidermis thickness, Trial 2” value (EFT400-Epidermis; 10 μM PS-1) was 96.2 microns. The “thickness of the resultant epidermis in vitro (in words)” value (EFT400-Epidermis; addition of 10 μm, compared with the other samples) was “relatively significant increase in the thickness”, the “stratum granulosum formation (in words)” value (EFT400-Epidermis; treated samples vs control samples, FIGS. 3-5) was “relatively well formed stratum granulosum; also recorded: relatively better developed stratum granulosum” and the “TGF-β1 protein expression (in words)” value ([1]; cells challenged with 10 nM PMA, FIG. 11) was “reduced TGF-β1 protein expression to similar levels seen in normal cells”. The “TGF-β1 protein expression (in words)” value ([1]; normal human dermal fibroblast cells, FIG. 10) was “relatively little change in TGF-β1 protein expression”, the “normalization of wound thickness (in words)” value ([2]; after PS-1 treatment) was “normalized faster” and the “tensile strength vs untreated wounds (in words)” value ([2]; day 7 post-wounding, high dose (5% w/w in DMSO), p=0.0223) was “significantly lower”. For the same molecule, the “tensile strength vs untreated wounds (in words)” value ([2]; day 7 post-wounding, low dose (1% w/w in DMSO), p=0.0121) was “significantly lower”, the “tensile strength, differences between wounds (in words)” value ([2]; day 14 post-wounding, all wounds) was “no significant differences in tensile strength” and the “wound thickness vs untreated control wounds (in words)” value ([2]; day 28, 1% PI, p=0.057) was “thinner than untreated control wounds, but just lacked significance”. For the same molecule, the “wound thickness vs untreated control wounds (in words)” value ([2]; day 28, 5% PI, p=0.013) was “significantly thinner”, the “tensile strength vs untreated wounds (in words)” value ([2]; day 28 post-wounding, 1% PI) was “no significant difference” and the “tensile strength vs untreated wounds (in words)” value ([2]; day 28 post-wounding, 5% PI, p=0.0269) was “significantly increased tensile strength”. The “Overall Dermal Collagen Response” value ([3]; PS-1 1% treated wounds, Day 7, control 0.8 ± 0.3) was 0.8 ± 0.3, the “Overall Dermal Collagen Response” value ([3]; PS-1 1% treated wounds, Day 14, control 1.9 ± 0.3) was 2.1 ± 0.3 and the “Overall Dermal Collagen Response” value ([3]; PS-1 1% treated wounds, Day 28, control 2.6 ± 0.5) was 2.9 ± 0.3. For the same molecule, the “Overall Dermal Collagen Response” value ([3]; PS-1 5% treated wounds, Day 7, control 0.8 ± 0.3) was 0.7 ± 0.3, the “Overall Dermal Collagen Response” value ([3]; PS-1 5% treated wounds, Day 14, control 1.9 ± 0.3) was 2.0 ± 0.0 and the “Overall Dermal Collagen Response” value ([3]; PS-1 5% treated wounds, Day 28, control 2.6 ± 0.5) was 2.8 ± 0.3. For the same molecule, the “accumulation of neutrophils in the dermis (in words)” value ([3]; day 14, most notable in rats receiving 1% PI) was “nearly extinct”, the “wounds presenting with some degree of epithelial hyperplasia” value ([3]; day 28, 1% PI rats) was 8 % of wounds and the “wounds presenting with some degree of epithelial hyperplasia” value ([3]; day 28, 5% PI rats) was 20 % of wounds. For the same molecule, the “macrophage and lymphocyte accumulates (in words)” value ([3]; day 28, most notably low dose rat wounds, FIG. 20) was “continued to decline” and the “histology finding in the subcutaneous tissue beneath the panniculus carnosum (in words)” value ([3]; wounds receiving direct administration of the PI, seemingly dose dependent) was “foreign body reaction”.
